Measured values: patent publication US9738697B2 (Wisconsin Alumni Research Foundation, priority 2013, dated 2017)

Experiments:
mouse pancreatic islets = test: Islet cell insulin secretion assay (glucose-stimulated insulin secretion, insulin content); format: cell-based
Method: A critical physiological role of GLP-1 is to augment glucose-stimulated insulin secretion (GSIS) from pancreatic islet β cells. α/β-Peptide SEQ. ID. […] The results are depicted in FIG. 2.
ID. NO: 7. Approximately 100 medium sized islets were washed three times, placed in a sterile Petri dish, and incubated overnight in culture medium (RPMI 1640, with 11.1 mM glucose, antibiotics and 10% heat-inactivated fetal bovine serum). The following day, 50 islets were washed and transferred in […] of Krebs Ringer Buffer (KRB) to a Swinnex®-brand filter holder (EMD Millipore, Billerica, Mass.). The islets were sandwiched between two layers of Bio-Gel P-2 bead (Bio-Rad, Hercules, Calif.) solution (200 mg beads/mL in KRB; bottom layer, […] and top layer, […]). The Swinnex filter holder was attached in-line with a Minipuls®-brand pump (Gilson, Middleton, Wis.) and a FC 204 Fraction Collector (Gilson). Islets were perifused at the rate of 1 mL/min, and samples were collected at 30 sec intervals. Insulin content of the islets themselves and insulin secretion were determined by ELISA. […] ID. NO: 7.

human GLP-1 receptor = human GLP-1 receptor (Homo sapiens, UniProt P43220); test: GLP-1R activation monitored by cAMP production in HEK293 cells
chymotrypsin = biological target: T1, chymotrypsin (Bos taurus, UniProt P00766); test: Protease assay with chymotrypsin (HPLC); format: in vitro ADME; details: chymotrypsin in TBS; 40 μM peptide, 50 μg/mL chymotrypsin, TBS pH 8.0, room temperature; read-out: t1/2 with chymotrypsin (converted)
T1 construct: purchased Promega V1062
Method: An HPLC method from the literature was used to assess protease action on selected compounds.^29,31 Two nmol of solid peptide was dissolved in 40 μL of TBS pH 8.0 (resulting concentration of peptide=40 μM) before protease was added. Chymotrypsin was purchased from Promega (Fitchburg, Wis.; catalog #V1062), and neprilysin was purchased from Reprokine. Ltd. (Valley Cottage, N.Y.; catalog #RKP08473); stock solutions of 250 μg/mL chymotrypsin and 200 μg/mL neprilysin in water were prepared. A 10 μL aliquot of protease stock solution was added to 40 μL of 40 μM peptide solution to begin the reaction. Periodically, a 10 μL aliquot of the solution was removed, and protease action was halted by adding this aliquot to 100 μL of 1% aqueous TFA solution. A portion (100 μL) of the quenched solution was injected onto an HPLC column using the conditions described under “Peptide Synthesis”, and peaks were analyzed using MALDI-TOF MS. The time course of peptide degradation was experimentally determined by integrating the area of each peak in a series of HPLC traces. The area percent of parent peptide (relative to the initial trace) was calculated for each trace and plotted in GraphPad Prism as an exponential decay to determine half-life values.
ID. […] Major backbone cut sites are indicated with double front slashes. […] Digestion occurs at three major cleavage sites. […] ID. NO: 7 with 50 μg/mL chymotrypsin in TBS pH 8.0 at room temperature. […] ID. NO: 9 with 50 μg/mL chymotrypsin in TBS pH 8.0 at room temperature. This peptide has seven substitutions, α→Aib.

neprilysin = biological target: T2, neprilysin (Homo sapiens, UniProt P08473); test: Protease assay with neprilysin (HPLC); format: in vitro ADME; details: 40 μg/mL neprilysin
T2 construct: purchased Reprokine; Ltd. RKP08473
Method: An HPLC method from the literature was used to assess protease action on selected compounds.^29,31 Two nmol of solid peptide was dissolved in 40 μL of TBS pH 8.0 (resulting concentration of peptide=40 μM) before protease was added. Chymotrypsin was purchased from Promega (Fitchburg, Wis.; catalog #V1062), and neprilysin was purchased from Reprokine. Ltd. (Valley Cottage, N.Y.; catalog #RKP08473); stock solutions of 250 μg/mL chymotrypsin and 200 μg/mL neprilysin in water were prepared. A 10 μL aliquot of protease stock solution was added to 40 μL of 40 μM peptide solution to begin the reaction. Periodically, a 10 μL aliquot of the solution was removed, and protease action was halted by adding this aliquot to 100 μL of 1% aqueous TFA solution. […] The time course of peptide degradation was experimentally determined by integrating the area of each peak in a series of HPLC traces. The area percent of parent peptide (relative to the initial trace) was calculated for each trace and plotted in GraphPad Prism as an exponential decay to determine half-life values.
Major backbone cut sites, as determined by MALDI-TOF-MS, are indicated with double front slashes.

C57BL/6J mice = test: Glucose tolerance test (GTT) in mice; format: in vivo, mouse
Method: ID. NO: 7 was administered to mice by interperitoneal (i.p.) injection at a 1 mg/kg dose, or lower for SEQ. ID. NO: 7, using an injection volume of 10 mL/kg body mass. Each peptide was first dissolved in prefiltered DMSO at 10 mg/mL concentration, then diluted >20-fold with TBS buffer, pH 7.4 (final DMSO conc.=<5%). Glucose was administered by i.p. injection with a sterile-filtered 30% D-glucose-saline solution at a 1.5 g/kg dose using a 5 mL/kg injection volume.
Thirteen-week-old male C57BL/6J mice (The Jackson Laboratory) (n=4) were fasted overnight on wood chip bedding for 15 hours prior to the experiment. Blood glucose levels were monitored from a tail tip bleed using an ACCU-CHEK®-brand blood glucose meter (Roche Diagnostics, Indianapolis, Ind.). Fasting glucose levels were measured at 75 minutes prior to the glucose injection (t=−75 min), and the compound injection was performed 60 minutes prior to the glucose injection (t=−60 min). Glucose levels were measured immediately prior to the glucose injection (t=0 min) to assess any changes in the baseline glucose caused by peptide administration. Blood glucose levels were monitored at 30, 60, 90, and 120 minutes after injection of glucose.
Five hours after peptide injection, the mice received a second injection of 1.5 g/kg glucose. Blood glucose was monitored at 30 min after this second glucose injection. Mice were sacrificed by CO2 inhalation at the conclusion of the GTT.

Chain of human GLP-1 receptor (P43220 24-463): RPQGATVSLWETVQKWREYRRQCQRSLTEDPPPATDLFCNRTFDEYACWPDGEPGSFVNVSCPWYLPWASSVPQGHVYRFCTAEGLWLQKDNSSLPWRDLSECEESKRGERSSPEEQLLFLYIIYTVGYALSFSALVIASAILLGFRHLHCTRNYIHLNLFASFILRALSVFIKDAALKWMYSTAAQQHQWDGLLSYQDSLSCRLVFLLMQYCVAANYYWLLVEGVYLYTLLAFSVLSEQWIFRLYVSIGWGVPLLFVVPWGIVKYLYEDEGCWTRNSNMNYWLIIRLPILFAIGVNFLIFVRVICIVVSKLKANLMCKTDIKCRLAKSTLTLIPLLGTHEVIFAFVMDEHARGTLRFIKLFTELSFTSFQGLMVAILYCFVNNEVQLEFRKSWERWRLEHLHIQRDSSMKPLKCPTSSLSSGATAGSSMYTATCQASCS
T2 sequence (P08473 whole entry): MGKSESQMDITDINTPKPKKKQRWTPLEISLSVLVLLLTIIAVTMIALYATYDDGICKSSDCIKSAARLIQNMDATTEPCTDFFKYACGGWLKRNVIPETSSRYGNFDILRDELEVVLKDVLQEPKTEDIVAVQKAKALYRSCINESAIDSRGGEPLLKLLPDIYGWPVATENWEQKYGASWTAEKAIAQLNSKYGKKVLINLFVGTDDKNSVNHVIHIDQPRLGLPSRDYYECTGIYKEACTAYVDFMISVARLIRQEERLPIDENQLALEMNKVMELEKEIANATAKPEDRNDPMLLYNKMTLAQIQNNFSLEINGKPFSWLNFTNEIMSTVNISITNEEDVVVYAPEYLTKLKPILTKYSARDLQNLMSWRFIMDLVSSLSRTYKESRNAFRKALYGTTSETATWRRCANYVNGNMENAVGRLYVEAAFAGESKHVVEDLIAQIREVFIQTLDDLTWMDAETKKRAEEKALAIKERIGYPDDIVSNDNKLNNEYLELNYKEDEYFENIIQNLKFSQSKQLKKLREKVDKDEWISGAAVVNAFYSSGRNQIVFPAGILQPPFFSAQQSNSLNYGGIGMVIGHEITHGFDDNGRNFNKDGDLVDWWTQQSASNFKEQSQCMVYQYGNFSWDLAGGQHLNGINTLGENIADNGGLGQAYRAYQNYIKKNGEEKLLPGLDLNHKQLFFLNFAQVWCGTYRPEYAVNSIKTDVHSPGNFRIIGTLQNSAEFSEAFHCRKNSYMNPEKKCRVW

CC[C@H](C)[C@H](NC(=O)[C@H](Cc1ccccc1)NC(=O)[C@H](CCC(=O)O)NC(=O)[C@H](CCCCN)NC(=O)[C@H](C)NC(=O)[C@H](C)NC(=O)[C@H](CCC(N)=O)NC(=O)CNC(=O)[C@H](CCC(=O)O)NC(=O)[C@H](CC(C)C)NC(=O)[C@H](Cc1ccc(O)cc1)NC(=O)[C@H](CO)NC(=O)[C@H](CO)NC(=O)[C@@H](NC(=O)[C@H](CC(=O)O)NC(=O)[C@H](CO)NC(=O)[C@@H](NC(=O)[C@H](Cc1ccccc1)NC(=O)[C@@H](NC(=O)CNC(=O)[C@H](CCC(=O)O)NC(=O)[C@H](C)NC(=O)[C@@H](N)Cc1c[nH]cn1)[C@@H](C)O)[C@@H](C)O)C(C)C)C(=O)N[C@@H](C)C(=O)N[C@@H](Cc1c[nH]c2ccccc12)C(=O)N[C@@H](CC(C)C)C(=O)N[C@H](C(=O)N[C@@H](CCCCN)C(=O)NCC(=O)N[C@@H](CCCNC(=N)N)C(N)=O)C(C)C [GLP-1(7-36)-NH2]
increase in glucose-stimulated insulin secretion (GSIS) (mouse pancreatic islets; freshly isolated mouse islets, 90 nM agonist): ~2 fold

CC[C@H](C)[C@H](NC(=O)[C@H](Cc1ccccc1)NC(=O)[C@H](CCC(=O)O)NC(=O)[C@H](CCCCN)NC(=O)[C@H](C)NC(=O)[C@H](C)NC(=O)[C@H](CCC(N)=O)NC(=O)CNC(=O)[C@H](CCC(=O)O)NC(=O)[C@H](CC(C)C)NC(=O)[C@H](Cc1ccc(O)cc1)NC(=O)[C@H](CO)NC(=O)[C@H](CO)NC(=O)C(C)(C)NC(=O)[C@H](CC(=O)O)NC(=O)[C@H](CO)NC(=O)[C@@H](NC(=O)[C@H](Cc1ccccc1)NC(=O)[C@@H](NC(=O)CNC(=O)[C@H](CCC(=O)O)NC(=O)[C@H](C)NC(=O)[C@@H](N)Cc1c[nH]cn1)[C@@H](C)O)[C@@H](C)O)C(=O)N[C@@H](C)C(=O)N[C@@H](Cc1c[nH]c2ccccc12)C(=O)N[C@@H](CC(C)C)C(=O)N[C@H](C(=O)N[C@@H](CCCCN)C(=O)NCC(=O)N[C@@H](CCCNC(=N)N)C(=O)NCC(N)=O)C(C)C [SEQ. ID. NO: 14]
agonist character at GLP-1R (in words) (human GLP-1 receptor; cAMP production): native-like efficacy and potency

GLP-1: glucagon-like peptide-1; used loosely for GLP-1(7-36)-NH2 (Tables 3, 5) or GLP-1(7-37)-NH2
Insulin Content average (ng/3 islets) (mouse pancreatic islets; high glucose + 3 nM peptide): 522.1 ng/3 islets | Insulin Content average (ng/3 islets) (mouse pancreatic islets; high glucose + 10 nM peptide): 496.4 ng/3 islets | Insulin Content average (ng/3 islets) (mouse pancreatic islets; high glucose + 30 nM peptide): 458.6 ng/3 islets | Insulin Content average (ng/3 islets) (mouse pancreatic islets; high glucose + 90 nM peptide): 463.1 ng/3 islets

CC[C@H](C)[C@H](NC(=O)[C@H](Cc1ccccc1)NC(=O)[C@H](CCC(=O)O)NC(=O)C(C)(C)NC(=O)[C@H](C)NC(=O)[C@H](C)NC(=O)[C@H](CCC(N)=O)NC(=O)C(C)(C)NC(=O)[C@H](CCC(=O)O)NC(=O)[C@H](CC(C)C)NC(=O)[C@H](Cc1ccc(O)cc1)NC(=O)C(C)(C)NC(=O)[C@H](CO)NC(=O)C(C)(C)NC(=O)[C@H](CC(=O)O)NC(=O)[C@H](CO)NC(=O)[C@@H](NC(=O)[C@H](Cc1ccccc1)NC(=O)[C@@H](NC(=O)CNC(=O)[C@H](CCC(=O)O)NC(=O)C(C)(C)NC(=O)[C@@H](N)Cc1c[nH]cn1)[C@@H](C)O)[C@@H](C)O)C(=O)NC(C)(C)C(=O)N[C@@H](Cc1c[nH]c2ccccc12)C(=O)N[C@@H](CC(C)C)C(=O)N[C@H](C(=O)NC(C)(C)C(=O)NCC(=O)N[C@@H](CCCNC(=N)N)C(=O)NCC(N)=O)C(C)C [SEQ. ID. NO: 9]
half-life (chymotrypsin): 2.25 min | number of major cleavage sites, neprilysin (neprilysin; MALDI-TOF-MS): six | half-life (neprilysin; neprilysin in TBS, pH 8, 40 μM peptide, TBS pH 8.0, room temperature, read-out: half-life (t1/2) with neprilysin (converted)): 498 min

Exendin-4: GLP-1R agonist found in the saliva of the Gila monster (39 residues), active agent in exenatide; purchased from Anaspec
rise of glucose relative to vehicle-treated mice during the GTT (in words) (C57BL/6J mice; 1 mg/kg): dramatic suppression | Average Blood Glucose Level (C57BL/6J mice; 1 mg/kg i.p., time 0.0 min): 89.5 mg/dL | Average Blood Glucose Level (C57BL/6J mice; 1 mg/kg i.p., time 30.0 min): 123.5 mg/dL | Average Blood Glucose Level (C57BL/6J mice; 1 mg/kg i.p., time 60.0 min): 87.0 mg/dL | Average Blood Glucose Level (C57BL/6J mice; 1 mg/kg i.p., time 90.0 min): 67.5 mg/dL | Average Blood Glucose Level (C57BL/6J mice; 1 mg/kg i.p., time 120.0 min): 70.0 mg/dL | Average Blood Glucose Level (C57BL/6J mice; 1 mg/kg i.p., time −60.0 min (peptide injection)): 118.0 mg/dL | Average Blood Glucose Level at 30 min (column head AUC) (C57BL/6J mice; 1 mg/kg i.p., Table 7, 30 min after second glucose injection given five hours after peptide): 118.8 | glucose-lowering effect in GTT repeated 5 hours after agonist administration (in words) (C57BL/6J mice; 1 mg/kg, 30 min after the second glucose challenge): maintained

CC[C@H](C)[C@H](NC(=O)[C@H](Cc1ccccc1)NC(=O)[C@H](CCC(=O)O)NC(=O)C1CCCC1NC(=O)[C@H](C)NC(=O)[C@H](C)NC(=O)[C@H](CCC(N)=O)NC(=O)C1CCCC1NC(=O)[C@H](CCC(=O)O)NC(=O)[C@H](CC(C)C)NC(=O)[C@H](Cc1ccc(O)cc1)NC(=O)C1CCCC1NC(=O)[C@H](CO)NC(=O)[C@@H](NC(=O)[C@H](CC(=O)O)NC(=O)C1CCCC1NC(=O)[C@@H](NC(=O)[C@H](Cc1ccccc1)NC(=O)[C@@H](NC(=O)CNC(=O)[C@H](CCC(=O)O)NC(=O)[C@H](C)NC(=O)[C@@H](N)Cc1c[nH]cn1)[C@@H](C)O)[C@@H](C)O)C(C)C)C(=O)NC1CCCC1C(=O)N[C@@H](Cc1c[nH]c2ccccc12)C(=O)N[C@@H](CC(C)C)C(=O)N[C@H](C(=O)NC1CNCC1C(=O)NCC(=O)N[C@@H](CCCNC(=N)N)C(=O)NCC(N)=O)C(C)C (some centres unmarked) [SEQ. ID. NO: 6, H-HAEGTFTXDVSXYLEXQAAXEFIXWLVZGRG-NH2]
EC50 (human GLP-1 receptor): > 100 nM | cAMP production at 100 nM (in words) (human GLP-1 receptor; 100 nM peptide): only a small amount of cAMP production | cAMP production, AVERAGES at M Concentrations −7 (human GLP-1 receptor; peptide concentration −7 (log M)): 100 | cAMP production, AVERAGES at M Concentrations −8 (human GLP-1 receptor; peptide concentration −8 (log M)): 99.2328 | cAMP production, AVERAGES at M Concentrations −9 (human GLP-1 receptor; peptide concentration −9 (log M)): 42.7672 | cAMP production, AVERAGES at M Concentrations −10 (human GLP-1 receptor; peptide concentration −10 (log M)): 18.05 | cAMP production, AVERAGES at M Concentrations −12 (human GLP-1 receptor; peptide concentration −12 (log M)): 5.688 | cAMP production, AVERAGES at M Concentrations −13 (human GLP-1 receptor; peptide concentration −13 (log M)): 5.688
